Laboratory results taken from patent US9833497B2, “Human originated EGF domain proteins and use of the same” (CHENGDU SOURCEBIO LIMITED-LIABILITY COMPANY, priority 2013, dated 2017).

Columns and labels:
Format in all cases: cell-based
Enterobacter cloacae = test: MIC against Gram-negative bacteria: Enterobacter cloacae; settings: E. cloacae; 10 h cultivation at 37° C.
Summary of the method: (§1)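 First, colonies from LB agar were grown in LB at 37° C, 185 rpm, to McFarland turbidity 0.5, then centrifuged and resuspended in fresh LB. Next, wells received 5×10^5 CFU/mL bacteria plus two-fold serially diluted EGF domain protein (triplicate). Finally, plates were shaken at 37° C and the no-growth concentration taken as MIC.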

Proteus mirabilis = test: MIC against Gram-negative bacteria: Proteus mirabilis; settings: P. mirabilis; 10 h cultivation at 37° C.
Summary of the method: as §1

Moraxella catarrhalis = test: MIC against Gram-negative bacteria: Moraxella catarrhalis; settings: M. catarrhalis; 10 h cultivation at 37° C.
Summary of the method: as §1

Pseudomonas aeruginosa = test: MIC against Gram-negative bacteria: Pseudomonas aeruginosa; settings: P. aeruginosa; 10 h cultivation at 37° C.
Summary of the method: as §1

E. coli DH5α = test: Antibacterial activity: MIC and growth curve against E. coli DH5α in 96-well plate; settings: minimal inhibitory concentration against E. coli DH5α; 96-well plate, 5×10^5 CFU/mL, 37° C., judged after 8 h
Summary of the method: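 MIC taken as lowest protein level with no bacterial growth, tracked by A600 every 30 min during 37 °C, 175 rpm culture. Two-fold protein series 50-12.5 μg/mL final, triplicate wells, against 5×10^5 CFU/mL of LB-washed mid-log cells.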

Serratia marcescens = test: MIC against Gram-negative bacteria: Serratia marcescens; settings: S. marcescens; 10 h cultivation at 37° C.
Summary of the method: as §1

Proteus vulgaris = test: MIC against Gram-negative bacteria: Proteus vulgaris; settings: P. vulgaris; 10 h cultivation at 37° C.
Summary of the method: as §1

Aeromonas hydrophila = test: MIC against Gram-negative bacteria: Aeromonas hydrophila; settings: A. hydrophila; 10 h cultivation at 37° C.
Summary of the method: as §1

Klebsiella pneumonia = test: MIC against Gram-negative bacteria: Klebsiella pneumonia; settings: K. pneumonia; 10 h cultivation at 37° C.
Summary of the method: as §1

Citrobacter diversus = test: MIC against Gram-negative bacteria: Citrobacter diversus; settings: C. diversus; 10 h cultivation at 37° C.
Summary of the method: as §1

E. coli BL21 = test: MIC against Gram-negative bacteria: E. coli BL21; settings: E. coli BL21; 10 h cultivation at 37° C.
Summary of the method: as §1

With “PRT966 (PSHPCAHEPCSHGICYDAPGGFRCVCEPGWSGPRCS; listed as Homo sapiens)” the MIC (Enterobacter cloacae) was 12.5 µg/mL, the MIC (Proteus mirabilis) was 50 µg/mL and the MIC (Moraxella catarrhalis) was 12.5 µg/mL. For the same substance, the MIC (Pseudomonas aeruginosa) was 50 µg/mL, the MIC (E. coli DH5α) was 50 µg/mL and the MIC (Serratia marcescens) was 12.5 µg/mL. The MIC (Proteus vulgaris) was 25 µg/mL, the MIC (Aeromonas hydrophila) was 50 µg/mL and the MIC (Klebsiella pneumonia) was 25 µg/mL. It also gave an MIC (Citrobacter diversus) of 25 µg/mL and an MIC (E. coli BL21) of 12.5 µg/mL.

“PRT967 (ARDACESQPCRAGGTCSSDGMGFHCTCPPGVQGRQCE; listed as Homo sapiens)” gave an MIC (Enterobacter cloacae) of 12.5 µg/mL, an MIC (Proteus mirabilis) of 12.5 µg/mL and an MIC (Moraxella catarrhalis) of 25 µg/mL. The MIC (Pseudomonas aeruginosa) was 12.5 µg/mL, the MIC (E. coli DH5α) was 50 µg/mL and the MIC (Serratia marcescens) was 12.5 µg/mL. It also gave an MIC (Proteus vulgaris) of 25 µg/mL, an MIC (Aeromonas hydrophila) of 25 µg/mL and an MIC (Klebsiella pneumonia) of 25 µg/mL. The MIC (Citrobacter diversus) was 12.5 µg/mL and the MIC (E. coli BL21) was 12.5 µg/mL.

“PRT968 (LEDPCHSGPCAGRGVCQSSVVAGTARFSCRCPRGFRGPDCS; listed as Homo sapiens)” was tested, and the MIC (Enterobacter cloacae) was 25 µg/mL, the MIC (Proteus mirabilis) was 50 µg/mL and the MIC (Moraxella catarrhalis) was 25 µg/mL. The MIC (Pseudomonas aeruginosa) was 25 µg/mL, the MIC (E. coli DH5α) was 25 µg/mL and the MIC (Serratia marcescens) was 12.5 µg/mL. For the same substance, the MIC (Proteus vulgaris) was 25 µg/mL, the MIC (Aeromonas hydrophila) was 25 µg/mL and the MIC (Klebsiella pneumonia) was 12.5 µg/mL. The MIC (Citrobacter diversus) was 12.5 µg/mL and the MIC (E. coli BL21) was 12.5 µg/mL.

Substance “PRT969 (LLSPCTPNPCEHGGRCESAPGQLPVCSCPQGWQGPRCQ; listed as Homo sapiens)” has an MIC (Enterobacter cloacae) of 25 µg/mL, an MIC (Proteus mirabilis) of 50 µg/mL and an MIC (Moraxella catarrhalis) of 25 µg/mL. For the same substance, the MIC (Pseudomonas aeruginosa) was 25 µg/mL, the MIC (E. coli DH5α) was 50 µg/mL and the MIC (Serratia marcescens) was 12.5 µg/mL. For the same substance, the MIC (Proteus vulgaris) was 25 µg/mL, the MIC (Aeromonas hydrophila) was 25 µg/mL and the MIC (Klebsiella pneumonia) was 50 µg/mL. It also gave an MIC (Citrobacter diversus) of 12.5 µg/mL and an MIC (E. coli BL21) of 12.5 µg/mL.

“PRT971 (DINDCDPNPCLNGGSCQDGVGSFSCSCLPGFAGPRCA; listed as Homo sapiens)” gave an MIC (Enterobacter cloacae) of 25 µg/mL, an MIC (Proteus mirabilis) of 50 µg/mL and an MIC (Moraxella catarrhalis) of 25 µg/mL. The MIC (Pseudomonas aeruginosa) was 50 µg/mL, the MIC (E. coli DH5α) was 50 µg/mL and the MIC (Serratia marcescens) was 25 µg/mL. It also gave an MIC (Proteus vulgaris) of 12.5 µg/mL, an MIC (Aeromonas hydrophila) of 50 µg/mL and an MIC (Klebsiella pneumonia) of 100 µg/mL. It also gave an MIC (Citrobacter diversus) of 12.5 µg/mL and an MIC (E. coli BL21) of 12.5 µg/mL.

“PRT973 (DLPDCSPSSCFNGGTCVDGVNSFSCLCRPGYTGAHCQ; listed as Homo sapiens)” showed an MIC (Enterobacter cloacae) of 12.5 µg/mL, an MIC (Proteus mirabilis) of 50 µg/mL and an MIC (Moraxella catarrhalis) of 12.5 µg/mL. It also gave an MIC (Pseudomonas aeruginosa) of 12.5 µg/mL, an MIC (E. coli DH5α) of 12.5 µg/mL and an MIC (Serratia marcescens) of 12.5 µg/mL. The MIC (Proteus vulgaris) was 25 µg/mL, the MIC (Aeromonas hydrophila) was 25 µg/mL and the MIC (Klebsiella pneumonia) was 50 µg/mL. The MIC (Citrobacter diversus) was 50 µg/mL and the MIC (E. coli BL21) was 12.5 µg/mL.

Substance “PRT974 (EADPCLSRPCLHGGVCSAAHPGFRCTCLESFTGPQCQ; listed as Homo sapiens)” has an MIC (Enterobacter cloacae) of 12.5 µg/mL, an MIC (Proteus mirabilis) of 50 µg/mL and an MIC (Moraxella catarrhalis) of 12.5 µg/mL. It also gave an MIC (Pseudomonas aeruginosa) of 12.5 µg/mL, an MIC (E. coli DH5α) of 25 µg/mL and an MIC (Serratia marcescens) of 12.5 µg/mL. The MIC (Proteus vulgaris) was 25 µg/mL, the MIC (Aeromonas hydrophila) was 50 µg/mL and the MIC (Klebsiella pneumonia) was 50 µg/mL. It also gave an MIC (Citrobacter diversus) of 25 µg/mL and an MIC (E. coli BL21) of 50 µg/mL.

In the case of “PRT975 (LVDWCSRQPCQNGGRCVQTGAYCLCPPGWSGRLCD; listed as Homo sapiens)”, the MIC (Enterobacter cloacae) is reported as 25 µg/mL, the MIC (Proteus mirabilis) is reported as 50 µg/mL and the MIC (Moraxella catarrhalis) is reported as 12.5 µg/mL. For the same substance, the MIC (Pseudomonas aeruginosa) was 50 µg/mL, the MIC (E. coli DH5α) was 25 µg/mL and the MIC (Serratia marcescens) was 25 µg/mL. The MIC (Proteus vulgaris) was 12.5 µg/mL, the MIC (Aeromonas hydrophila) was 50 µg/mL and the MIC (Klebsiella pneumonia) was 12.5 µg/mL. It also gave an MIC (Citrobacter diversus) of 12.5 µg/mL and an MIC (E. coli BL21) of 12.5 µg/mL.

“PRT976 (IGVRLEQLCQAGGQCVDEDSSHYCVCPEGRTGSHCE; listed as Homo sapiens)” gave an MIC (Enterobacter cloacae) of 50 µg/mL, an MIC (Proteus mirabilis) of 50 µg/mL and an MIC (Moraxella catarrhalis) of 25 µg/mL. The MIC (Pseudomonas aeruginosa) was 50 µg/mL, the MIC (E. coli DH5α) was 50 µg/mL and the MIC (Serratia marcescens) was 25 µg/mL. It also gave an MIC (Proteus vulgaris) of 25 µg/mL, an MIC (Aeromonas hydrophila) of 12.5 µg/mL and an MIC (Klebsiella pneumonia) of 12.5 µg/mL. It also gave an MIC (Citrobacter diversus) of 25 µg/mL and an MIC (E. coli BL21) of 12.5 µg/mL.
